Source: article PMC5519579, “Inhibition of PAI-1 Activity by Toddalolactone as a Mechanism for Promoting Blood Circulation and Removing Stasis by Chinese Herb Zanthoxylum nitidum var. tomentosum” (Frontiers in Pharmacology, 2017)

Target: T1, plasminogen activator inhibitor-1 (PAI-1) (Homo sapiens, UniProt P05121)
T1 construct: gene SERPINE1; recombinant human PAI-1
Assay: chromogenic uPA/S-2444 assay with recombinant PAI-1; supported by SDS-PAGE of PAI-1/uPA complex and clot lysis assay
Format: biochemical

T1 sequence (P05121 24-402, other chains not shown): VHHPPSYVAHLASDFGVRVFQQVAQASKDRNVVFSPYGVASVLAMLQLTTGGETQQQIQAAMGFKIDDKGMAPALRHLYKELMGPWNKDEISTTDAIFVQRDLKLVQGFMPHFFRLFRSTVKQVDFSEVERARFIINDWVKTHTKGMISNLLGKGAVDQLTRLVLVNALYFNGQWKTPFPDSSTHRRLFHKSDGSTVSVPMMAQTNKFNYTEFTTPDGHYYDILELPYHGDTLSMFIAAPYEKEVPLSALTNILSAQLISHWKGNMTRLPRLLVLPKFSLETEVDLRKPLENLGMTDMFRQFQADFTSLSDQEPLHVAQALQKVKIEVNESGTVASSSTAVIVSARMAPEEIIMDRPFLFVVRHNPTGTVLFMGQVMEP

COc1cc2oc(=O)ccc2c(OC)c1C[C@@H](O)C(C)(C)O (single isomer, unassigned) [Peak 4, toddalolactone]
IC50: 37.3 ± 3.23 µM
